Test results: article PMC8277899, “A novel RyR1-selective inhibitor prevents and rescues sudden death in mouse models of malignant hyperthermia and heat stroke” (Nature Communications, 2021)
Values joined by “and” are separate entries in the source; they are usually repeats but may differ in a detail not shown here. Equal values may be shown once. Read-outs that look alike come from different tables or passages of the source.

Tests used:
mice = experiment: Observation of side effects in mice; assay type: in vivo, mouse
R163C mice = assay type: in vivo, mouse
[1] = Pharmacokinetics after i.p. administration in mice; assay type: in vivo, mouse; design: Cpd1 concentration (sheet Fig S5a) / Cpd1 concentration (sheet Fig S5b): unit not given here; conditions: for concentration at 10 min / concentration at 30 min / concentration at 60 min / Cmax / half-life / concentration at 5 min: C57BL/6J, mouse, plasma; for concentration at 10 min / concentration at 30 min / concentration at 60 min / concentration at 5 min: intraperitoneal; for Cmax / half-life: ip; for Cpd1 concentration (sheet Fig S5b) / Cpd1 concentration (sheet Fig S5a): i.p., single mice
Experimental: Cpd1 sodium salt (3 mg/kg and 10 mg/kg) dissolved in normal saline was administered i.p. to WT C57BL/6 J mice (10 week-old). Serial tail bled blood samples (∼20 μL) were collected using heparinized tip at 5, 10, 30, and 60 min after administration. Aliquots (5 μL) of plasma samples obtained from each blood were treated with 50 μL of acetonitrile and organic layer were injected onto LC–MS/MS system (Waters Corp., Milford, MA, USA). The pharmacokinetic parameters included maximum concentration (Cmax), elimination half-life (T½).

[2] = test system: FDB muscle cells from WT mice; experiment: Ca2+ imaging (Cal520, fura-2) of isolated single FDB cells from WT mice; assay type: cell-based, mouse
Experimental: WT and mutant mice (R2509C, 8- to 20-week old; R163C, 12- to 16-week old, and G2435R, 12- to 16-week old) were euthanized and flexor digitorum brevis (FDB) muscles were dissected and incubated with 2 mg/mL collagenase (Worthington Biochemical Co., NJ, USA) in the HEPES-Krebs solution containing 2 mg/mL bovine serum albumin for 2–3 h at 37 °C. Following incubation, single cells were separated by gentle trituration in collagenase-free HEPES-Krebs solution. Isolated single FDB cells were seeded on a laminin-coated cover slip of the 35 mm glass-bottom dish or on 96 well plate coated with Cultrex basement membrane matrix (Trevigen, Minneapolis, USA).
Isolated single FDB cells were incubated with 4 µM Cal520-AM (AAT Bioquest, CA, USA) or fura-2-AM (Thermo Fisher Scientific) dye in the HEPES-Krebs solution (140 mM NaCl, 5 mM KCl, 2 mM CaCl2, 1 mM MgCl2, 11 mM glucose, 5 mM HEPES, pH 7.4) for 30 min at 37 °C. The cells were then washed three times with the HEPES-Krebs solution to remove excess dye, and after 30 min of de-esterification, fluorescence images were obtained with a 20X (NA = 0.75) objective lens of an inverted microscope (Nikon TE2000-E Japan) equipped with the sCMOS camera (Zyla, Andor, Belfast, Northern Ireland) using Metamorph v7 (Molecular Devices). Cal520 was excited at 480 ± 15 nm, and fluorescence was measured at wavelengths of 525 ± 25 nm. […]

WT mice = experiment: Muscle force in vivo, grip force test (4-grips test), WT mice; design: species or system mouse; conditions: for grip force (sheet Fig S6b): single mice; for grip force normalized by body weight: 8-times injection of 1 mg/kg at 10 min intervals, 1 mg/kg
[3] = Metabolic stability in mouse liver microsomes; assay type: in vitro ADME; conditions: 0.5 μM, NADPH
Experimental: Cpd1 (final concentration was 0.5 μM) was incubated with human or mouse hepatic microsomes (XenoTech Ltd, Kansas City, KS) with nicotinamide adenine dinucleotide phosphate (NADPH) for 10 and 60 min at 37 °C. Each reaction was stopped by acetonitrile, and the value of unchanged compound 1 was determined by quantitating using LC–MS/MS, and the metabolic stability was evaluated as a remaining rate (%).

Compound: CCCCCCCCn1cc(C(=O)O)c(=O)c2cc3c(cc21)OCO3 [Cpd1, 6,7-(methylenedioxy)-1-octyl-4-quinolone-3-carboxylic acid]
- side effects (mice): no apparent side effects of Cpd1 other
- survival curve status code of one mouse after isoflurane anesthesia (code not defined) (R163C mice; 2.5 mg/kg, at 11 minutes): 1
- survival curve status code of one mouse after isoflurane anesthesia (code not defined) (R163C mice; 2.5 mg/kg, at 12 minutes): 1
- survival curve status code of one mouse after isoflurane anesthesia (code not defined) (R163C mice; 2.5 mg/kg, at 13 minutes): 1
- survival curve status code of one mouse after isoflurane anesthesia (code not defined) (R163C mice; 2.5 mg/kg, at 14 minutes): 1
- survival curve status code of one mouse after isoflurane anesthesia (code not defined) (R163C mice; 5 mg/kg, at 12 minutes): 1
- survival curve status code of one mouse after isoflurane anesthesia (code not defined) (R163C mice; 5 mg/kg, at 15 minutes): 1
- survival curve status code of one mouse after isoflurane anesthesia (code not defined) (R163C mice; 5 mg/kg, at 30 minutes): 0
- rescue effect on [Ca2+]i during MH crisis (R163C mice; 10 mg/kg 15 min after induction of isoflurane anesthesia): rapidly decreased [Ca^2+]i to the levels measured in WT muscle
- survival curve status code of one mouse after isoflurane anesthesia (code not defined) (R163C mice; 10 mg/kg, at 30 minutes): 0
- effect on MH episode and death under isoflurane (R163C mice; pretreatment at doses of 5 and 10 mg/kg): effectively prevented the MH episode and death
- plasma concentration ([1]; 3 mg/kg i.p., 10 min): 750 ng/mL and 510 ng/mL and 710 ng/mL and 660 ng/mL and 760 ng/mL
- plasma concentration ([1]; 3 mg/kg i.p., 30 min): 150 ng/mL and 120 ng/mL and 140 ng/mL and 190 ng/mL
- plasma concentration ([1]; 10 mg/kg i.p., 10 min): 2950 ng/mL and 3200 ng/mL and 1730 ng/mL and 2280 ng/mL and 1660 ng/mL
- plasma concentration ([1]; 10 mg/kg i.p., 60 min): 50 ng/mL and 60 ng/mL
- concentration at 10 min ([1]; 3 mg/kg, 3 mg/kg i.p., 10 min): 440 ng/mL
- concentration at 30 min ([1]; 3 mg/kg, 3 mg/kg i.p., 30 min): 110 ng/mL
- concentration at 10 min ([1]; 10 mg/kg, 10 mg/kg i.p., 10 min): 3080 ng/mL
- concentration at 60 min ([1]; 10 mg/kg, 10 mg/kg i.p., 60 min): 40 ng/mL
- Cmax ([1]; 3 mg/kg i.p.): 1500 ± 200 ng/mL
- half-life ([1]; 3 mg/kg i.p., read-out: t1/2): 8.4 ± 1.4 min
- Cmax ([1]; 10 mg/kg i.p.): 5400 ± 600 ng/mL
- half-life ([1]; 10 mg/kg i.p., read-out: t1/2): 8.6 ± 1.6 min
- half-life ([1]; both the 3 mg/kg and 10 mg/kg dose i.p., read-out: t1/2 (plasma half-life)): ~8 min
- Cmax ([1]; female mice, 3 mg/kg i.p.): 1600 ± 100 ng/mL
- half-life ([1]; female mice, 3 mg/kg i.p., read-out: t1/2): 8.6 ± 0.8 min
- Cmax ([1]; female mice, 10 mg/kg i.p.): 6000 ± 400 ng/mL
- half-life ([1]; female mice, 10 mg/kg i.p., read-out: t1/2): 9.3 ± 1 min
- Cmax ([1]; female, 8-times injection of 1 mg/kg at 10 min intervals): 150 ± 110 ng/mL
- half-life ([1]; female, 8-times injection of 1 mg/kg at 10 min intervals, read-out: t1/2): 14.8 ± 2.1 min
- Cmax ([1]; male mice, 3 mg/kg i.p.): 1300 ± 400 ng/mL
- half-life ([1]; male mice, 3 mg/kg i.p., read-out: t1/2): 8.3 ± 2.7 min
- Cmax ([1]; male mice, 10 mg/kg i.p.): 5100 ± 1200 ng/mL
- half-life ([1]; male mice, 10 mg/kg i.p., read-out: t1/2): 7.4 ± 2.5 min
- Cmax ([1]; male, 8-times injection of 1 mg/kg at 10 min intervals): 670 ± 110 ng/mL
- half-life ([1]; male, 8-times injection of 1 mg/kg at 10 min intervals, read-out: t1/2): 9.6 ± 2.7 min
- plasma concentration ([1]; female, 8-times injection of 1 mg/kg at 10 min intervals, 5 min, 1 mg/kg): 110 ng/mL and 120 ng/mL
- plasma concentration ([1]; female, 8-times injection of 1 mg/kg at 10 min intervals, 30 min, 1 mg/kg): 30 ng/mL
- plasma concentration ([1]; female, 8-times injection of 1 mg/kg at 10 min intervals, 60 min, 1 mg/kg): 20 ng/mL
- concentration at 5 min ([1]; female, 1 mg/kg, 8-times injection of 1 mg/kg at 10 min intervals, 5 min): 140 ng/mL
- concentration at 10 min ([1]; female, 1 mg/kg, 8-times injection of 1 mg/kg at 10 min intervals, 10 min): 120 ng/mL
- concentration at 30 min ([1]; female, 1 mg/kg, 8-times injection of 1 mg/kg at 10 min intervals, 30 min): 40 ng/mL
- concentration at 60 min ([1]; female, 1 mg/kg, 8-times injection of 1 mg/kg at 10 min intervals, 60 min): 10 ng/mL
- plasma concentration ([1]; male, 8-times injection of 1 mg/kg at 10 min intervals, 60 min, 1 mg/kg): 20 ng/mL
- concentration at 5 min ([1]; male, 1 mg/kg, 8-times injection of 1 mg/kg at 10 min intervals, 5 min): 430 ng/mL
- concentration at 60 min ([1]; male, 1 mg/kg, 8-times injection of 1 mg/kg at 10 min intervals, 60 min): 10 ng/mL
- Cpd1 concentration (sheet Fig S5b) ([1]; time 5, dose head 3): 1.2 and 1.12 and 0.98
- Cpd1 concentration (sheet Fig S5b) ([1]; time 5, dose head 10): 4.45 and 3.8 and 3.72
- Cpd1 concentration (sheet Fig S5a) ([1]; time 10, dose head 3): 0.44 and 0.75 and 0.51
- Cpd1 concentration (sheet Fig S5b) ([1]; time 10, dose head 3): 0.71 and 0.66 and 0.76
- Cpd1 concentration (sheet Fig S5a) ([1]; time 10, dose head 10): 1.73 and 2.28 and 1.66
- Cpd1 concentration (sheet Fig S5b) ([1]; time 10, dose head 10): 3.08 and 2.95 and 3.2
- Cpd1 concentration (sheet Fig S5a) ([1]; time 30, dose head 3): 0.11 and 0.15 and 0.12
- Cpd1 concentration (sheet Fig S5b) ([1]; time 30, dose head 3): 0.14 and 0.19
- Cpd1 concentration (sheet Fig S5b) ([1]; time 30, dose head 10): 0.39 and 0.45 and 0.41
- Cpd1 concentration (sheet Fig S5b) ([1]; time 60, dose head 3): 0.03 and 0.02
- Cpd1 concentration (sheet Fig S5a) ([1]; time 60, dose head 10): 0.05 and 0.06 and 0.04
- Cpd1 concentration (sheet Fig S5b) ([1]; time 60, dose head 10): 0.04 and 0.05 and 0.06
- effect on resting [Ca2+]i (fura-2) ([2]; WT cells, 0.1 and 0.3 µM): no significant effect
- Ca2+ signal with Cpd1 relative to None = 1 (sheet Fig S1b) ([2]; WT, single experiments): 0.9888 and 0.981 and 0.9775 and 0.9827 and 0.9913
- grip force (sheet Fig S6b) (WT mice; 10 min after Cpd1): 10.7 and 8.11 and 9.35 and 11.39
- grip force (sheet Fig S6b) (WT mice; 60 min after Cpd1): 11.25 and 11.53 and 12.05 and 13.94
- grip force (sheet Fig S6b) (WT mice; Pre (before administration), Cpd1 group): 12.3 and 12.63 and 13.75 and 13.44
- reduction of muscle strength (WT mice; WT mice, 10 min after 10 mg/kg): 15%
- recovery of muscle strength deficit (WT mice; WT mice, 60 min after 10 mg/kg): almost completely recovered
- grip force normalized by body weight (WT mice; female WT, 10 min): 6.55 g/g BW and 8.77 g/g BW and 8.32 g/g BW
- grip force normalized by body weight (WT mice; female WT, 30 min): 6.59 g/g BW and 8.18 g/g BW and 9 g/g BW
- grip force normalized by body weight (WT mice; female WT, 60 min): 8.64 g/g BW and 8.82 g/g BW and 9.45 g/g BW
- grip force normalized by body weight (WT mice; female WT, 120 min): 10.05 g/g BW and 9.64 g/g BW and 12.23 g/g BW
- grip force normalized by body weight (WT mice; female WT, Pre): 9.86 g/g BW and 10.18 g/g BW and 11.36 g/g BW
- grip force normalized by body weight (WT mice; male WT, 10 min): 6.56 g/g BW and 4.67 g/g BW and 5.04 g/g BW
- grip force normalized by body weight (WT mice; male WT, 30 min): 7.19 g/g BW and 7.63 g/g BW and 7.37 g/g BW
- grip force normalized by body weight (WT mice; male WT, 60 min): 8.81 g/g BW and 9.89 g/g BW and 10.81 g/g BW
- grip force normalized by body weight (WT mice; male WT, 120 min): 9.48 g/g BW and 8.74 g/g BW and 9.44 g/g BW
- grip force normalized by body weight (WT mice; male WT, Pre): 9.33 g/g BW and 9.22 g/g BW and 8.63 g/g BW
- remaining rate (residual Cpd1, 0 min = 100%) ([3]; 10 min): 23% and 26% and 28% and 19% and 18%
- remaining rate (residual Cpd1, 0 min = 100%) ([3]; 60 min): 3% and 2% and 4%
